# Assay results from ChEMBL document CHEMBL1133634, “3-Deoxyclocinnamox: the first high-affinity, nonpeptide mu-opioid antagonist lacking a phenolic hydroxyl group” (J Med Chem, 2000).
# Target: Mu-type opioid receptor (Homo sapiens) (UniProt P35372)
# Assay: […] [35S]- GTPgammaS on Opioid receptor mu 1 in monkey brain membranes
# Type: cell membranes
# Details: Cercopithecidae, Membrane, target entry is the homologue from another species
# Mu-type opioid receptor (Homo sapiens), sequence (P35372 whole entry): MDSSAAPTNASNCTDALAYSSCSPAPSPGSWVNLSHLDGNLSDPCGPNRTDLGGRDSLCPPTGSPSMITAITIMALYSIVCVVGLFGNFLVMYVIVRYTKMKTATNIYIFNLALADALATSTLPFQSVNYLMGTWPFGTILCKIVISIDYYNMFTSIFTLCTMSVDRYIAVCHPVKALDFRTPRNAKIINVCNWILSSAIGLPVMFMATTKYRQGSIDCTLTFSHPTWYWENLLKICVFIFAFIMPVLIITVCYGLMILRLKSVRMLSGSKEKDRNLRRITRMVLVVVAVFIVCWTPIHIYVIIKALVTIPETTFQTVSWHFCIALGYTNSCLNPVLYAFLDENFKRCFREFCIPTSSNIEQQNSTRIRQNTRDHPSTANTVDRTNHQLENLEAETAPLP
row,Structure (SMILES),Ke
1,O=C(/C=C/c1ccc(Cl)cc1)NC12CCC(=O)C3Oc4cccc5c4[C@@]31CCN(CC1CC1)[C@@H]2C5 (stereo partly drawn),0.28 nM
2,O=C(/C=C/c1ccc(Cl)cc1)N[C@@]12CCC(=O)[C@@H]3Oc4c(O)ccc5c4[C@@]31CCN(CC1CC1)[C@@H]2C5,0.37 nM
3,COc1ccc2c3c1O[C@H]1C(=O)CC[C@@]4(NC(=O)/C=C/c5ccc(Cl)cc5)[C@@H](C2)N(CC2CC2)CC[C@]314,6.37 nM
